By Cmax is commonly meant the highest concentration seen after dosing.

Some results are limits rather than exact numbers.

The target of data set [1] is T1, rat NaP2b (SLC34A2) (Rattus norvegicus, UniProt Q9JJ09).
T1 construct: host or cells: HEK293
T1 sequence (Q9JJ09 1-695): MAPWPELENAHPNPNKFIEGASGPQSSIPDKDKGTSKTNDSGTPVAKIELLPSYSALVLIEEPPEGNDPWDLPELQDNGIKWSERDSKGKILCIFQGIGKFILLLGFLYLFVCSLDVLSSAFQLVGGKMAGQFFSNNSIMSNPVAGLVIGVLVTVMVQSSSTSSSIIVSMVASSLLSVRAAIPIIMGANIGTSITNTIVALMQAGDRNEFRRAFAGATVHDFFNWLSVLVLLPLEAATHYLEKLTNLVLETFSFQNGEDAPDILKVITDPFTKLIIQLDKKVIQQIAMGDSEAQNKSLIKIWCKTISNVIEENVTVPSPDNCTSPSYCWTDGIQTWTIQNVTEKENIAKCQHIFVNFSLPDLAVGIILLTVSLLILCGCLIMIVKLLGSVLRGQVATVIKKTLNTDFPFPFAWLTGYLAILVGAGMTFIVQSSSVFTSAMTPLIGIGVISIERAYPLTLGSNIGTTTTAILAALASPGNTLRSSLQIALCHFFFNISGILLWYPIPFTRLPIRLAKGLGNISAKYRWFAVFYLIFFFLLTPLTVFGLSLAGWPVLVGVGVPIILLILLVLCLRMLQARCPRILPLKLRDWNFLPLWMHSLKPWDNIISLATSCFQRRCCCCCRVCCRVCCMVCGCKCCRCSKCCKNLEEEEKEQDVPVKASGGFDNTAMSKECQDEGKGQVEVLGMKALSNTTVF
Kind of data set: NaP2b-mediated Pi transport (33P uptake) in transfected HEK293 cells, rat NaP2b. In kind it is cell-based. The following applies: HEK293, 0.1 mM phosphate. The method, boiled down:
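HEK293 cells transiently transfected with NaP2b cDNA, endogenous PiT transport suppressed; ^33P-phosphate uptake measured in sodium vs choline buffer (100 uM KH2PO4, pH 7.4) for 3–30 min at room temperature. Twelve concentrations, 0.1 nM–30 uM, in duplicate; uptake by scintillation counting, pIC50 calculated.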

Data set [2] in a line: Determination of compound Cmax and AUC after oral gavage (plasma LC-MS/MS). In kind it is in vivo, Sprague-Dawley rats. Particulars: Sprague-Dawley, rat, plasma, po, Structure (II) examples, Table 6, actual oral dose 7.6-11 mg/kg. Summed up:
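Plasma exposure measured by LC-MS/MS after acetonitrile precipitation with internal standard, quantified against a standard curve made in plasma. Compound given orally by gavage to Sprague-Dawley rats at nominal 2.5 or 10 mg/kg, with K2EDTA plasma sampled at 0.5, 1, 2 and 4 h.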

Another data set addresses T2, human NaP2b (SLC34A2) (Homo sapiens, UniProt O95436).
T2 construct: host or cells: HEK293
T2 sequence (O95436 1-690): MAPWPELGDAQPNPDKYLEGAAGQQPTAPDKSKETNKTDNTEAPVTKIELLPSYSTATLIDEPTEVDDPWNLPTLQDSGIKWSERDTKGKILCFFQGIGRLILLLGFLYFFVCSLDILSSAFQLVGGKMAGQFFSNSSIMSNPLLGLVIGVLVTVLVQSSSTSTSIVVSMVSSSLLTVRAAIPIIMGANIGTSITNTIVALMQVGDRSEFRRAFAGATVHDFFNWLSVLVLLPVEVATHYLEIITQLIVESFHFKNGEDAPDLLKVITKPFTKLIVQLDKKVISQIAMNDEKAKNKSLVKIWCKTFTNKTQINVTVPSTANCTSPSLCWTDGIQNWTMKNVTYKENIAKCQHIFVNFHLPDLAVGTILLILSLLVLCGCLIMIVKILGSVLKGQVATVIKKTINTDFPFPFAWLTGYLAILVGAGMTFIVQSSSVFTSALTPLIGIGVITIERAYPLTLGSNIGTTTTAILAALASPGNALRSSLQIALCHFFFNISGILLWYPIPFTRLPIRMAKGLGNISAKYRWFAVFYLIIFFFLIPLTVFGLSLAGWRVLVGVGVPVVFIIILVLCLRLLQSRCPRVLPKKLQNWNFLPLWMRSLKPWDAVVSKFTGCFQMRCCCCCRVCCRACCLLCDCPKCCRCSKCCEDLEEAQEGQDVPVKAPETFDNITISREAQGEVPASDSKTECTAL
Kind of data set: NaP2b-mediated Pi transport (33P uptake) in transfected HEK293 cells, human NaP2b. It counts as cell-based. Particulars: Structure (II) examples, Table 2; HEK293, 0.1 mM phosphate; read-out: pIC50 range for human Nap2b (converted). The protocol: HEK293 cells were obtained from the American Type Culture collection and propagated per their instructions. Expression clones for rat and human NaP2b (SLC34A2) were obtained from Open Biosystems (Catalog numbers MRN1768-9510282, and MHS1010-99823026, respectively). The sequence of the human protein was mutated to insert a threonine after residue 37, and to introduce a N39D mutation.
The rate of phosphate (Pi) uptake into HEK293 cells was measured using a modification of the method described by Mohrmann et al. (Mohrmann, I., Mohrmann, M., Biber, J., and Murer, H. (1986) Am. J. Phys. 250(3 Pt 1):G323-30.) Transfected HEK293 cells were treated with a pharmacological agent to minimize endogenous PiT-mediated phosphate transport activity, such that the only remaining sodium-dependent phosphate transport activity is that which was bestowed by introduction of the NaP2b genes.
Cells were seeded into 96-well plates at 25,000 cells/well and cultured overnight. […]
After incubation for 3-30 minutes at room temperature, assay mixtures were removed, and the cells were washed twice with ice cold stop solution (137 mM sodium chloride, 14 mM Tris, pH 7.4). Cells were lysed by addition of 20 μL 0.1% Tween 80 followed by 100 μL scintillation fluid, and counted using a TopCount (Perkin Elmer).
pIC50 (the negative log of the IC50) values of the test compounds were calculated using GraphPad Prism.

Data set [3] concerns the target T1, rat NaP2b (SLC34A2). The data set is described as follows: Inhibition of NaP2b-mediated Pi (33P) uptake in transfected HEK293 cells, rat NaP2b. It counts as cell-based. Particulars: 33P Pi uptake, 0.1 mM phosphate, value given as pIC50 range. Summed up:
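The cells transiently expressed NaP2b after Lipofectamine transfection. Each compound was run in duplicate over twelve concentrations, 0.1 nM–30 uM.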

In data set [4] the test system is Uptake of Phosphorus from the Intestine. Kind of data set: In vivo bolus phosphorus challenge. On the set-up: species or system rat. Particulars: Sprague-Dawley rats on low-phosphorus diet; oral Drug Dose 30, 15 min before phosphate bolus; serum 30 min post bolus. The protocol:
By pretreating animals with a low phosphorus diet followed by the subsequent dosing of a phosphorus bolus, serum phosphorus levels were monitored after 30 minutes as a surrogate for intestinal phosphorus absorption. […] The in vivo bolus phosphorus challenge model used here mimics this model in rats.
Male, 7-week-old Sprague-Dawley rats (Charles-River laboratories international, Hollister, Calif.) were allowed to acclimatize for a minimum of 3 days before switching to a synthetic low-phosphorus diet (TD.85010, Harlan Teklad, Madison, Wis.) which contains 0.1% phosphorus and 0.6% calcium. At day 5, testing compounds or vehicle alone (as indicated) were orally administered at the indicated dose in a volume of 5 ml/kg, followed by a bolus gavage of monobasic sodium phosphate (1 mmol in 1 ml) 15 min after compound dosing. Serum was collected via retroorbital bleeding 30 min post phosphate bolus and phosphate levels were determined utilizing an ACE ALERA blood chemistry analyzer (Alfa Wassermann Diagnostic Technologies, West Caldwell, N.J.).
The extent of inhibition by test compounds on the elevation of serum phosphate levels in response to the bolus of phosphorus is shown in Table 12 (data are expressed as % Inhibition, with 6-10 animals per data point). The differences between groups were evaluated by one-way analysis of variance with Dunnett's post hoc tests.

For data set [5], the target named is T3, NaPi2b (Rattus norvegicus, UniProt Q9JJ09).
T3 construct: host or cells: HEK293
T3 sequence (Q9JJ09 1-695): T1 sequence (Q9JJ09 1-695)
Kind of data set: Competition with phosphate: Pi transport assay repeated at 2.1 vs 0.1 mM phosphate. In kind it is cell-based. The following applies: potency at 2.1 vs 0.1 mM phosphate. The method, then:
(§1) To ascertain if an inhibitor was competitive for binding with phosphate, the procedure was repeated, but raising the concentration of the substrate in the assay mixture from 0.1 to 2.1 mM phosphate.

Data set [6] has as its system NaPi2b. The data set is described as follows: Competition with phosphate: Pi uptake assay repeated at 2.1 vs 0.1 mM phosphate. It counts as cell-based. The following applies: potency at 2.1 vs 0.1 mM phosphate.
Text: For example, a phosphate uptake assay can be performed and the IC50 values for a compound at different phosphate concentrations can be determined (e.g., “Enzyme kinetics”, I. Segel, 1975, John-Wiley & Sons, p. 123). IC50 values for non-competitive inhibitors will remain the same or similar with respect to the phosphate concentration, whereas IC50 values for competitive inhibitors will increase (i.e lose potency) as phosphate concentration increases.
as §1

[7] abbreviates: Structure (II) examples, Table 2.
[8] abbreviates: Structure (III) examples, Table 2.
Setting [9] is: Structure (IV) examples, Table 1.

In the case of `O=C(O)CCOCCOCCOCCNC(=O)c1cccc(C(=O)Nc2ccc(Cl)cc2C(=O)Nc2ccn(-c3cccc(C(F)(F)F)c3)n2)c1` [Example 25], the IC50 was under 1 µM at rat NaP2b (SLC34A2) [1] (Structure (II) examples, Table 2, read-out: pIC50 range for rat Nap2b (converted)) and under 1 µM on human NaP2b (SLC34A2). The highest level in data set [2] (Cmax) was 3 ng/mL.

Regarding `O=C(O)CCSCc1cccc(C(=O)Nc2ccc(N3CCCCC3)cc2-c2cc(C(=O)NCc3cc(C(F)(F)F)cc(C(F)(F)F)c3)ccn2)c1` [Example 1.32], at rat NaP2b (SLC34A2) [3], the IC50 was 1 to 7.94 µM. Moreover, the “% Inhibition of Serum P elevation” value in data set [4] was 20-30%.

Take `O=C(O)P(=O)(O)O` [PFA]: the “pIC50 range for rat Nap2b” value against rat NaP2b (SLC34A2) [1] (setting [7]), at rat NaP2b (SLC34A2) [1] (setting [8]), against rat NaP2b (SLC34A2) [1] (setting [9]) and against rat NaP2b (SLC34A2) [3] was 2-3 in each case. Also, the “Competitive with respect to Pi?” value on NaPi2b [5] (setting [7]), on NaPi2b [5] (setting [8]), on NaPi2b [5] (setting [9]) and with NaPi2b [6] was “Yes” throughout.

On rat NaP2b (SLC34A2) [3], `O=C(NCCN1CCOCC1)c1cccc(C(=O)Nc2ccc(N3CCCCC3)cc2-c2cc(C(=O)NCc3cccc(C(F)(F)F)c3)ccn2)c1` [Example 4.4, N1-(2-Morpholinoethyl)-N3-(4-(piperidin-1-yl)-2-(4-((3-(trifluoromethyl)benzyl)carbamoyl)pyridin-2-yl)phenyl)isophthalamide] had an IC50 of 10 to 31.6 µM. In data set [4], the “% Inhibition of Serum P elevation” value is given as 40-50%.

(Values after patent US20140023611A1 (priority 2010, published 2014).)
